Structures are written as SMILES. Structures can show the parent of a compound that is named as a salt.

T1 sequence (P07550 whole entry): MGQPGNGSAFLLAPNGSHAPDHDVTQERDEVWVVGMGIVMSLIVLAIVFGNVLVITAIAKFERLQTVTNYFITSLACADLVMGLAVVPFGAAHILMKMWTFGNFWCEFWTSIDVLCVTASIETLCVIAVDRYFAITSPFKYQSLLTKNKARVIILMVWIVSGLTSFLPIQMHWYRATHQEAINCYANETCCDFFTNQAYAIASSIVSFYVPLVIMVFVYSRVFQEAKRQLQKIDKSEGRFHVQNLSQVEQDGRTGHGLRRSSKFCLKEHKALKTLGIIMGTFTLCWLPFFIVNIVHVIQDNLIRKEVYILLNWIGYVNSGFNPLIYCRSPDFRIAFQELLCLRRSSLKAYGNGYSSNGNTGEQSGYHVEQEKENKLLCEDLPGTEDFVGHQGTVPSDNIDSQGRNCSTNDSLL

The test has as its target T1, Adrenergic β2 (Homo sapiens, UniProt P07550).
T1 construct: Adherent H292 cells were removed from tissue culture flasks; endogenous in cells; host or cells: H292 cells
In words: Adrenergic β2 mediated cAMP production in H292 cells (AlphaScreen cAMP detection). The settings on record: Intrinsic Activity, fraction relative to the maximum activity determined for formoterol. Format: cell-based. On the procedure:
Adrenergic β2 Mediated cAMP Production
H292 cells were grown in 225 cm2 flasks incubator at 37° C., 5% CO2 in RPMI medium containing, 10% (v/v) FBS (foetal bovine serum) and 2 mM L-glutamine.
Adherent H292 cells were removed from tissue culture flasks by treatment with Accutase™ cell detachment solution for 15 minutes. Flasks were incubated for 15 minutes in a humidified incubator at 37° C., 5% CO2. Detached cells were re-suspended in RPMI media (containing 10% (v/v) FBS and 2 mM L-glutamine) at 0.05×10^6 cells per mL. 5000 cells in 100 μL were added to each well of a tissue-culture-treated 96-well plate and the cells incubated overnight in a humidified incubator at 37° C., 5% CO2. The culture media was removed and cells were washed twice with 100 μL assay buffer and replaced with 50 μL assay buffer (HBSS solution containing 10 mM HEPES pH 7.4 and 5 mM glucose). Cells were rested at room temperature for 20 minutes after which time 25 μL of rolipram (1.2 mM made up in assay buffer containing 2.4% (v/v) dimethylsulphoxide) was added. Cells were incubated with rolipram for 10 minutes after which time test compounds were added and the cells were incubated for 60 minutes at room temperature. The final rolipram concentration in the assay was 300 μM and final vehicle concentration was 1.6% (v/v) dimethylsulphoxide. The reaction was stopped by removing supernatants, washing once with 100 μL assay buffer and replacing with 50 μL lysis buffer. The cell monolayer was frozen at −80° C. for 30 minutes (or overnight).
The concentration of cAMP (cyclic adenosine monophosphate) in the cell lysate was determined using AlphaScreen™ methodology. The frozen cell plate was thawed for 20 minutes on a plate shaker then 10 μL of the cell lysate was transferred to a 96-well white plate. 40 μL of mixed AlphaScreen™ detection beads pre-incubated with biotinylated cAMP, was added to each well and the plate incubated at room temperature for 10 hours in the dark. The AlphaScreen™ signal was measured using an EnVision spectrophotometer (Perkin-Elmer Inc.) with the recommended manufacturer's settings. cAMP concentrations were determined by reference to a calibration curve determined in the same experiment using standard cAMP concentrations. Concentration response curves for agonists were constructed and data was fitted to a four parameter logistic equation to determine both the pEC50 and Intrinsic Activity. Intrinsic Activity was expressed as a fraction relative to the maximum activity determined for formoterol in each experiment.
Take `O=C(CCNCCc1cccs1)N(CCNCCc1ccc(O)c2[nH]c(=O)sc12)C1CCCCC1` [Example 35, N-Cyclohexyl-N-(2-{[2-(4-hydroxy-2-oxo-2,3-dihydro-1,3-benzothiazol-7-yl)ethyl]amino}ethyl)-N^3-[2-(2-thienyl)ethyl]-β-alaninamide bis-trifluoroacetic acid salt]: the “β2 Int Act” value is 0.91.
Regarding `O=C(CCNCCc1cccc(F)c1)N(CCNCCc1ccc(O)c2[nH]c(=O)sc12)C1CCCCCC1` [Example 36, N-Cycloheptyl-N^3-[2-(3-fluorophenyl)ethyl]-N-(2-{[2-(4-hydroxy-2-oxo-2,3-dihydro-1,3-benzothiazol-7-yl)ethyl]amino}ethyl)-β-alaninamide bis-trifluoroacetic acid salt], the “β2 Int Act” value was 0.84.
With `O=C(CCNCCc1cccc(O)c1)N(CCNCCc1ccc(O)c2[nH]c(=O)sc12)C1CCCCCC1` [Example 37, N-Cycloheptyl-N-(2-{[2-(4-hydroxy-2-oxo-2,3-dihydro-1,3-benzothiazol-7-yl)ethyl]amino}ethyl)-N^3-[2-(3-hydroxyphenyl)ethyl]-β-alaninamide bis-trifluoroacetic acid salt], the “β2 Int Act” value is on record as 0.91.
`CC(C)(C)CN(CCNCCc1ccc(O)c2[nH]c(=O)sc12)C(=O)CCNC(C)(C)Cc1ccccc1` [Example 38, N^3-(1,1-Dimethyl-2-phenylethyl)-N-(2,2-dimethylpropyl)-N-(2-{[2-(4-hydroxy-2-oxo-2,3-dihydro-1,3-benzothiazol-7-yl)ethyl]amino}ethyl)-β-alaninamide bis-trifluoroacetic acid salt]: the “β2 Int Act” value is on record as 0.42.
To `CC(=O)OCC(C)(C)CN(CCNCCc1ccc(O)c2[nH]c(=O)sc12)C(=O)CCNCCc1ccc(Cl)cc1` [Example 39, 3-[{N-[2-(4-Chlorophenyl)ethyl]-β-alanyl}(2-{[2-(4-hydroxy-2-oxo-2,3-dihydro-1,3-benzothiazol-7-yl)ethyl]amino}ethyl)amino]-2,2-dimethylpropyl acetate diacetic acid salt] belongs 0.58.
Take `CC(C)(CO)CN(CCNCCc1ccc(O)c2[nH]c(=O)sc12)C(=O)CCNCCc1ccc(Cl)cc1` [Example 40, N^3-[2-(4-Chlorophenyl)ethyl]-N-(3-hydroxy-2,2-dimethylpropyl)-N-(2-{[2-(4-hydroxy-2-oxo-2,3-dihydro-1,3-benzothiazol-7-yl)ethyl]amino}ethyl)-β-alaninamide diacetic acid salt]: the “β2 Int Act” value was 0.64.
To `O=C(CCNCCc1ccccc1)N(CCNCCc1ccc(O)c2[nH]c(=O)sc12)C1Cc2ccccc2C1` [Example 41, N^1-(2,3-Dihydro-1H-inden-2-yl)-N^1-(2-{[2-(4-hydroxy-2-oxo-2,3-dihydro-1,3-benzothiazol-7-yl)ethyl]amino}ethyl)-N^3-(2-phenylethyl)-β-alaninamide bis-trifluoroacetic acid salt] belongs 0.99; to `O=C(CCNCCc1cccc(Cl)c1)N(CCNCCc1ccc(O)c2[nH]c(=O)sc12)C1Cc2ccccc2C1` [Example 42, N^3-[2-(3-Chlorophenyl)ethyl]-N^1-(2,3-dihydro-1H-inden-2-yl)-N^1-(2-{[2-(4-hydroxy-2-oxo-2,3-dihydro-1,3-benzothiazol-7-yl)ethyl]amino}ethyl)-β-alaninamide bis-trifluoroacetic acid salt], 0.82; to `COc1cccc(CCNCCC(=O)N(CCNCCc2ccc(O)c3[nH]c(=O)sc23)CC(C)(C)C)c1` [Example 43, N^1-(2,2-Dimethylpropyl)-N^1-(2-{[2-(4-hydroxy-2-oxo-2,3-dihydro-1,3-benzothiazol-7-yl)ethyl]amino}ethyl)-N^3-[2-(3-methoxyphenyl)ethyl]-β-alaninamide bis-trifluoroacetic acid salt], 0.67.
In the case of `CC(C)(C)CN(CCNCCc1ccc(O)c2[nH]c(=O)sc12)C(=O)CCNCCc1cccc(F)c1` [Example 44, N^1-(2,2-Dimethylpropyl)-N^3-[2-(3-fluorophenyl)ethyl]-N^1-(2-{[2-(4-hydroxy-2-oxo-2,3-dihydro-1,3-benzothiazol-7-yl)ethyl]amino}ethyl)-β-alaninamide bis-trifluoroacetic acid salt], the “β2 Int Act” value was found to be 0.73.
Regarding `CC(C)(CN(CCNCCc1ccc(O)c2[nH]c(=O)sc12)C(=O)CCNCCc1ccccc1)c1ccccc1` [Example 45, N^1-(2-{[2-(4-Hydroxy-2-oxo-2,3-dihydro-1,3-benzothiazol-7-yl)ethyl]amino}ethyl)-N^1-(2-methyl-2-phenylpropyl)-N^3-(2-phenylethyl)-β-alaninamide bis-trifluoroacetic acid salt], the “β2 Int Act” value is reported as 0.55.
As for `O=C(CCNCCc1ccccc1Cl)N(CCNCCc1ccc(O)c2[nH]c(=O)sc12)C1CCC(F)(F)CC1` [Example 46, N^3-[2-(2-Chlorophenyl)ethyl]-N^1-(4,4-difluorocyclohexyl)-N^1-(2-{[2-(4-hydroxy-2-oxo-2,3-dihydro-1,3-benzothiazol-7-yl)ethyl]amino}ethyl)-β-alaninamide bis-trifluoroacetic acid salt], the figure is 0.78; as for `O=C(CCNCCc1cccc(Cl)c1)N(CCNCCc1ccc(O)c2[nH]c(=O)sc12)C1CCC(F)(F)CC1` [Example 47, N^3-[2-(3-Chlorophenyl)ethyl]-N^1-(4,4-difluorocyclohexyl)-N^1-(2-{[2-(4-hydroxy-2-oxo-2,3-dihydro-1,3-benzothiazol-7-yl)ethyl]amino}ethyl)-β-alaninamide bis-trifluoroacetic acid salt], 0.73.
As for `O=C(CCNCCc1ccc(Cl)cc1)N(CCNCCc1ccc(O)c2[nH]c(=O)sc12)C1CCC(F)(F)CC1` [Example 48, N^3-[2-(4-Chlorophenyl)ethyl]-N^1-(4,4-difluorocyclohexyl)-N^1-(2-{[2-(4-hydroxy-2-oxo-2,3-dihydro-1,3-benzothiazol-7-yl)ethyl]amino}ethyl)-β-alaninamide bis-trifluoroacetic acid salt], the “β2 Int Act” value was determined as 0.55.
Take `O=C(CCNCCc1ccc(Cl)c(Cl)c1)N(CCNCCc1ccc(O)c2[nH]c(=O)sc12)C1CCC(F)(F)CC1` [Example 49, N^3-[2-(3,4-Dichlorophenyl)ethyl]-N^1-(4,4-difluorocyclohexyl)-N^1-(2-{[2-(4-hydroxy-2-oxo-2,3-dihydro-1,3-benzothiazol-7-yl)ethyl]amino}ethyl)-β-alaninamide bis-trifluoroacetic acid salt]: the “β2 Int Act” value came to 0.59.
As for `O=C(CCNCCc1cccc(Cl)c1)N(CCNCCc1ccc(O)c2[nH]c(=O)sc12)C1CCCCCC1` [Example 50, N^3-[2-(3-Chlorophenyl)ethyl]-N^1-cycloheptyl-N^1-(2-{[2-(4-hydroxy-2-oxo-2,3-dihydro-1,3-benzothiazol-7-yl)ethyl]amino}ethyl)-β-alaninamide bis-trifluoroacetic acid salt], the figure is 0.91.
Turning to `O=C(CCNCCc1ccc(Cl)cc1)N(CCNCCc1ccc(O)c2[nH]c(=O)sc12)C1CCCCCC1` [Example 51, N^3-[2-(4-Chlorophenyl)ethyl]-N^1-cycloheptyl-N^1-(2-{[2-(4-hydroxy-2-oxo-2,3-dihydro-1,3-benzothiazol-7-yl)ethyl]amino}ethyl)-β-alaninamide bis-trifluoroacetic acid salt], the “β2 Int Act” value was 0.59.
To `O=C(CCNCCc1cccs1)N(CCNCCc1ccc(O)c2[nH]c(=O)sc12)C1CCCCCC1` [Example 52, N^1-Cycloheptyl-N^1-(2-{[2-(4-hydroxy-2-oxo-2,3-dihydro-1,3-benzothiazol-7-yl)ethyl]amino}ethyl)-N^3-[2-(2-thienyl)ethyl]-β-alaninamide bis-trifluoroacetic acid salt] belongs 0.92; to `O=C(CCNCCc1ccc(F)c(F)c1)N(CCNCCc1ccc(O)c2[nH]c(=O)sc12)C1CCCCCC1` [Example 53, N^1-Cycloheptyl-N^3-[2-(3,4-difluorophenyl)ethyl]-N^1-(2-{[2-(4-hydroxy-2-oxo-2,3-dihydro-1,3-benzothiazol-7-yl)ethyl]amino}ethyl)-β-alaninamide bis-trifluoroacetic acid salt], 0.74; to `O=C(CCNCCc1cccc(OC(F)F)c1)N(CCNCCc1ccc(O)c2[nH]c(=O)sc12)C1CCCCCC1` [Example 54, N^1-Cycloheptyl-N^3-{2-[3-(difluoromethoxy)phenyl]ethyl}-N^1-(2-{[2-(4-hydroxy-2-oxo-2,3-dihydro-1,3-benzothiazol-7-yl)ethyl]amino}ethyl)-β-alaninamide bis-trifluoroacetic acid salt], 0.69.

Values taken from patent US7700782B2, “Compounds 569” (AstraZeneca AB, priority 2007, dated 2010).
